Data as given in patent publication US4224343A, “Process and composition for decreasing blood serum prolactin levels” (Massachusetts Institute of Technology, priority 1979, dated 1980).
Several values for one entry are separate records, joined by “and”; a condition that tells them apart may be missing. Identical values can stand only once. Like-named read-outs stand apart in the source and are kept apart here.

Key:
brain dopamine release = assay: Accumulation of HVA in corpora striata of rats given haloperidol or probenecid after tyrosine (FIG. 2); details: for striatal HVA concentration: tyrosine 100 mg/kg or diluent, 20 min later haloperidol 2 mg/kg or probenecid 200 mg/kg i.p., sacrificed 70 min after second injection, corpora striata
Experimental: Male, 150 to 200 g Sprague-Dawley rats (Charles River Breeding Laboratories, Wilmington, MA) were exposed to light (Vita-Lite, Duro-Test Co., North Bergen, N.J.) between 9 AM and 9 PM daily and allowed access to Big Red Rat Chow (Charles River Breeding Laboratories) and water ad limitum. Drugs were injected intraperitoneally at a volume of 2 ml/kg body weight. […] Control animals received the appropriate diluents. […] Brains were quickly removed, and the striata were dissected out (Glowinski and Iverson, 1966), frozen on dry ice, and subsequently assayed for HVA. Tyrosine was assayed in homogenates of the remaining brain (Waalkes and Udenfriend, 1957).

[1] = target: T1, Striatal Tyrosine Hydroxylase (Rattus norvegicus, UniProt P04177); assay: Kms of striatal tyrosine hydroxylase after in vivo pretreatment; format: biochemical; details: for Km: striatal homogenate of treated rats
T1 construct: 10,000 g supernatant of Triton X-100 homogenate of rat corpus striatum
Experimental: Corpora striata were homogenized in 10 volumes of 0.05 M Tris-acetate buffer (pH 6.0), containing 0.2 percent Triton X-100 (Harleco, Philadelphia, PA). The homogenates were centrifuged for 10 min. at 10,000 g, and the supernatant fluids were collected for assay (Coye, 1972). The assay medium contained, in a total volume of 110 μl: 50 μl of a supernatant fluid; 65 nmoles of DMPH4 (2-amino-4-hydroxy-6,7-dimethyl-5,6,7,8-tetrahydropteridine hydrochloride [synthetic cofactor obtained from Calbiochem, San Diego, CA]); 29 nanomoles of pyridoxal phosphate; 4 nanomoles of 2-mercaptoethanol; 240 units of catalase; 0.01 millimoles phosphate buffer (pH 6.2); and 10 μl of aromatic L-amino acid decarboxylase prepared from hog kidneys (Coyle, 1972). Samples were preincubated for 2 min. at 27° C.
The assay was stopped by the addition of 0.5 ml of 10 percent trichloroacetic acid. The acidified medium was then shaken for 2 hours to recover the ^14 CO2, which was trapped by folded filter paper strips placed in 0.2 ml of NCS tissue solubilizer (Amersham/Searle, Arlington Heights, IL). The strips were then transferred to scintillation vials containing 10 ml of Aquasol (New England Nuclear, Boston, MA), and their radioactivity was counted.

[2] = system: Norepinephrine synthesis and turnover in brain neurons; assay: Accumulation of brain MOPEG-SO4 after probenecid administration and pretreatment with tyrosine; details: for Brain MOPEG-SO4 Level / Brain Tyrosine Level: killed 60 min after second injection, whole brain, mean ± SEM; for effect on brain MOPEG-SO4: substance given alone, versus diluent; for effect on brain tyrosine levels: tyrosine 100 mg/kg i.p., probenecid 400 mg/kg, two-way analysis of variance
Source text: (§1) Male Sprague-Dawley rats (Charles River Breeding Laboratories, Wilmington, MA) weighing 150 g were housed in hanging cages (6-8 per cage), given ad libitum access to tap water and a 26% protein diet (Charles River Rat-Mouse-Hamster Maintenance Formula 24RF), and maintained under light (300 microwatts/cm^2; Vita-Lite, Duro-Test Corp., North Bergen, N.J.) between 8 AM and 8 PM daily. Rats used for diet experiments were fasted overnight and then allowed to consume the experimental diet starting at 10 AM. Diets of different compositions were prepared in agar gel ([…] of water) as described by Gibson et al., Biochem. Pharmacol., 26, 1137-1142 (1977). All amino acids and drugs were injected intraperitoneally.
(§2) Norepinephrine synthesis and turnover in brain neurons were estimated by measuring the rate of accumulation of MOPEG-SO4 after probenecid administration or exposure to a cold environment. […] An aliquot of each homogenate (in 0.15 M ZnSO4) was first assayed for tyrosine by the method of Waalkes and Undenfriend, J. Lab. Clin. Med., 50, 733-736 (1957). An equal volume of 0.15 M barium hydroxide was then added to the remaining homogenate, which was rehomogenized (Polytron, Brinkman Instruments, N.Y.), centrifuged and assayed for MOPEG-SO4 by the method of Meek and Neff above.
Tyrosine (Grand Island Biological Co., Long Island, N.Y.) and probenecid (Sigma Chemical Co., St. Louis, MO), which are poorly soluble in water, were dissolved in dilute NaOH; the solutions were then buffered to pH 7.4 with hydrochloric acid and brought to a known volume with saline. This yielded a fine suspension that was suitable for injection.
In each of 3 experiments, groups of 4-6 rats were injected with either a
dose of tyrosine (100 mg/kg, i.p.) known to accelerate brain dopa
synthesis or its diluent and, 30 min. later, with probenecid (400 mg/kg,
[…].) or its diluent. Animals were killed 60 min. after the second
injection, and their whole brains were analyzed for tyrosine and […]

Serum Prolactin = assay: Serum prolactin by radioimmunoassay in reserpine-treated rats; format: in vivo, rat
Experimental: Groups of 4 male rats received reserpine (2.5 mg/kg/day, divided into two equal doses each day) intraperitoneally for four days. On day 5, in the morning, no reserpine was administered, but instead half of the animals received tyrosine (200 mg/kg) or the vehicle (saline), and were killed two hours later. Sera were collected and assayed by radioimmunoassay for prolactin.

[3] = system: Norepinephrine synthesis and turnover in brain neurons; assay: Brain tyrosine and MOPEG-SO4 in rats exposed to cold (4° C.) after amino acid injection (FIG. 1)
Source text: as §1, §2
In experiments on stress produced by exposure to cold, animals received the more soluble ethyl-ester form of tyrosine (J. T. Baker, Phillipsburg, N.J.), instead of tyrosine itself, to raise brain tyrosine levels. Data were analyzed by one-way or two-way analysis of variance.
Placing the rats in a cold environment (4° C.) increases norepinephrine turnover; this accelerates the formation of both norepinephrine itself and its metabolite, MOPEG-SO4, in brain neurons. The rats were exposed to cold to determine whether treatments that changed brain tyrosine levels could influence the rate at which the brain accumulates MOPEG-SO4 in rats exposed to cold stress and not given probenecid (FIG. 1).
The relationship shown in FIG. 1 was obtained as follows: Groups of rats were injected intraperitoneally with valine (200 mg/kg), an amino acid that competes with tyrosine for uptake into the brain (8), or with tyrosine (125 mg/kg of the ethyl ester) or saline; 30 min. later they were placed in single cages in a cold (4° C.) environment. After 1 hr., all animals were killed, and their whole brains were analyzed for tyrosine and MOPEG-SO4. Control animals were injected with saline and left at room temperature (22° C.), also in a single cages, for 90 min. Each point represents the tyrosine and MOPEG-SO4 levels present in a single brain. Data were pooled from several experiments. […] In FIG. 1, the symbols are as follows: closed circles, animals pretreated with valine; open circles, animals pretreated with saline; closed squares, animals pretreated with tyrosine.

[4] = pretreatment (tyrosine 100 mg/kg i.p. or diluent), 30 min later probenecid 400 mg/kg
[5] = pretreatment tyrosine 100 mg/kg i.p., 30 min later diluent
[6] = tyrosine 125 mg/kg of the ethyl ester i.p., cold (4° C.) 1 hr

T1 sequence (P04177 whole entry): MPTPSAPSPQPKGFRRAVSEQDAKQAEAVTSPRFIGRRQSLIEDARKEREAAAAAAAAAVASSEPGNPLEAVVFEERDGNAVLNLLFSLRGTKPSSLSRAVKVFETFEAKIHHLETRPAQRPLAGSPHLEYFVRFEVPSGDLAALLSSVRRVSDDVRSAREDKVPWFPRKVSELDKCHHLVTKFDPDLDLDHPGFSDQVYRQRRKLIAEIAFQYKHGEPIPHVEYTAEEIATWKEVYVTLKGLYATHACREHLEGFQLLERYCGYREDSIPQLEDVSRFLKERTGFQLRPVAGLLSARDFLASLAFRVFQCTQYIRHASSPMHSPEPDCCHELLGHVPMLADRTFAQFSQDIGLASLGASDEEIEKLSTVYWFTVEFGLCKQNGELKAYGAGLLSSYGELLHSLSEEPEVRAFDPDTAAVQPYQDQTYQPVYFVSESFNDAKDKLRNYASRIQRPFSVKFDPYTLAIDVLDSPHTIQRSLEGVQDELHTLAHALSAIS

## O=C(CCCN1CCC(O)(c2ccc(Cl)cc2)CC1)c1ccc(F)cc1 [Haloperidol, haloperidol]
Brain dopamine release
  striatal HVA concentration: 2.00 ± 0.10 µg/g
[1]; DMPH4 concentrations 0.1 to 0.5 mM, read-out: Km for DMPH4
  Km: 130 ± 10 µM
[1]; tyrosine concentrations 0.125-1.0 mM, read-out: Km for tyrosine
  Km: 48.1 ± 1.9 µM

## CCCN(CCC)S(=O)(=O)c1ccc(C(=O)O)cc1 [Probenecid, probenecid, reference compound]
Brain dopamine release
  striatal HVA concentration: 1.30 ± 0.10 µg/g
[2]; [4]
  Brain MOPEG-SO4 Level: 175 ng/g and 175 ± 6 ng/g
[2]
  effect on brain MOPEG-SO4: significantly raised
  effect on brain tyrosine levels: failed to modify

## N[C@@H](Cc1ccc(O)cc1)C(=O)O [Tyrosine, tyrosine]
Brain dopamine release; tyrosine 100 mg/kg 20 min before haloperidol 2 mg/kg
  potentiation of the accumulation of HVA in striata of haloperidol-treated rats: 59%
Brain dopamine release; tyrosine 100 mg/kg 20 min before probenecid 200 mg/kg
  effect on HVA levels in animals given probenecid: failed
Serum Prolactin; male rats, reserpine […] i.p. for four days, day 5 tyrosine 200 mg/kg, killed two hours later, mean ± standard error
  Serum Prolactin: 44 ± 2 ng/mL
Serum Prolactin; reserpine-pretreated rats, tyrosine 200 mg/kg
  effect on serum prolactin levels: lowers serum prolactin levels
[1]; tyrosine 100 mg/kg in vivo
  effect of prior administration on the Kms of tyrosine hydroxylase for tyrosine or DMPH4 in vitro: failed to affect
[2]; [4]
  Brain MOPEG-SO4 Level: 203 ng/g and 203 ± 8 ng/g
  Brain Tyrosine Level: 24.7 ± 1.3 µg/g
[2]; [5]
  Brain MOPEG-SO4 Level: 127 ± 2 ng/g
  Brain Tyrosine Level: 23.3 ± 1.5 µg/g
[2]
  effect on brain MOPEG-SO4: no effect
  effect on brain tyrosine levels: significantly raised
[2]; tyrosine 100 mg/kg i.p. 30 min before probenecid 400 mg/kg
  effect of tyrosine pretreatment on the probenecid-induced rise in MOPEG-SO4: significantly enhanced
[3]; i.p. injection (tyrosine 125 mg/kg of the ethyl ester; valine 200 mg/kg) 30 min before 1 hr in cold (4° C.), whole brain
  brain tyrosine levels: 24.6 µg/g
[3]; tyrosine 125 mg/kg of the ethyl ester i.p. 30 min before 1 hr in cold (4° C.), whole brain
  brain MOPEG-SO4 levels: 193 ng/g
[3]; [6]
  rise in brain MOPEG-SO4 versus saline-injected animals: 70%
  rise in brain tyrosine levels versus saline-injected animals: about 80%

## CC(C)[C@H](N)C(=O)O [valine, reference compound]
[3]; valine 200 mg/kg i.p., cold (4° C.) 1 hr
  effect on brain tyrosine or MOPEG-SO4 levels: failed, in this study, to cause significant alterations
